{"source": "patent US9790169B2", "about": "“IDO inhibitors” (BRISTOL-MYERS SQUIBB COMPANY, priority 2015, dated 2017)", "target": "human IDO1 (Homo sapiens, UniProt P14902)", "sequence (P14902 whole entry)": "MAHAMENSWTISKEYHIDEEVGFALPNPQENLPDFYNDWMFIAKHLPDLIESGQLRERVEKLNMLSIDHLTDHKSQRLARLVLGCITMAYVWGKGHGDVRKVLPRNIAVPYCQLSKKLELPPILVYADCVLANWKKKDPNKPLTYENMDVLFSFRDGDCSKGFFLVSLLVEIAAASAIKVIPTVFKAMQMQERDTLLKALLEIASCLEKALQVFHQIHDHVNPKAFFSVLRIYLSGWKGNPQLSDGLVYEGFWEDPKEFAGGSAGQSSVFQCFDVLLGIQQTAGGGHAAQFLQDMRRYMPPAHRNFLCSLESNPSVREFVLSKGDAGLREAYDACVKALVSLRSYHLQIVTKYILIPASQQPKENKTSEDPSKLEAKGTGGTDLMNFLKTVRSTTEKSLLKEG", "assay": "Assessment of human IDO-1 inhibitory activity in HEK cells (human IDO1/HEK293 cells, kynurenine read-out with Ehrlich reagent, absorbance 490 nm)", "type": "cell-based", "parameters": "expressed in transfected cells", "details": "HEK Human IDO-1 cellular assay", "procedure,_shortened": "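Kynurenine output from stably IDO1-transfected HEK293 cells (10,000/well, phenol red-free RPMI, 10% FBS) after 20 h compound exposure at 37 °C. The reaction was stopped with 0.2% TCA and heated 30 min at 50 °C, then the supernatant was mixed with Ehrlich reagent and read at 490 nm. IC50 was set against DMSO and a 500 nM reference standard as 0 and 100% inhibition.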", "note": "Structures can show the parent of a compound that is named as a salt.", "data": [{"smiles": "COCC(CC(=O)O)c1ccc(N(CC2CC2)C2CCOCC2)c(Nc2ccc(C#N)c(C)c2)c1", "note": "(single isomer, unassigned) [Example 686, 3-(3-((4-cyano-3-methylphenyl)amino)-4-((cyclopropylmethyl) (tetrahydro-2H-pyran-4-yl)amino)phenyl)-4-methoxybutanoic acid]", "values": [{"measurement": "IC50", "result": "< 5", "unit": "nM"}]}, {"smiles": "CCC(CC(=O)O)c1ccc(N(CC(C)C)C2CCCCC2)c(NC(=O)Cc2ccc(Cl)cc2F)c1", "note": "(racemic) [Example 1085]", "values": [{"measurement": "IC50", "result": "< 5", "unit": "nM"}]}, {"smiles": "CCN(c1ccc([C@@H](COC)CC(=O)O)cc1NC(=O)Nc1ccc(OC(F)F)cc1)C1CCOCC1", "note": "(single isomer, unassigned) [Example 425]", "values": [{"measurement": "IC50", "result": "> 50", "unit": "nM"}]}, {"smiles": "CCC(CC(=O)O)c1cc(NC(=O)Nc2ccc(C)cc2)c(N(CC(C)C)C2CCCCC2)cc1F", "note": "(racemic) [Example 951, (+/−)-3-(4-(Cyclohexyl(isobutyl)amino)-2-fluoro-5-(3-(p-tolyl)ureido)phenyl)pentanoic acid]", "values": [{"measurement": "IC50", "result": "< 5", "unit": "nM"}]}, {"smiles": "CCC(CC(=O)O)c1ccc(N(CC(C)C)CC(C)C)c(NC(=O)Cc2ccc(C)cc2)c1", "note": "(racemic) [Example 949, (+/−)-3-(4-(Diisobutylamino)-3-(2-(p-tolyl)acetamido)phenyl)pentanoic acid]", "values": [{"measurement": "IC50", "result": "< 5", "unit": "nM"}]}, {"smiles": "CC[C@@H](CC(=O)O)c1ccc(N(CC(C)C)C2CCS(=O)(=O)CC2)c(NC(=O)Nc2ccc(OC)cc2F)c1", "note": "(single isomer, unassigned) [Example 216]", "values": [{"measurement": "IC50", "result": "> 50", "unit": "nM"}]}, {"smiles": "COCC(CC(=O)O)c1ccc(N(CC(C)C)C2CCCCC2)c(NC(=O)Nc2cc(C)on2)c1", "note": "(single isomer, unassigned) [987-1]", "values": [{"measurement": "IC50", "result": "< 50", "unit": "nM"}]}, {"smiles": "CCC(CC(=O)O)c1ccc(N2CCC[C@@H]2C(C)(C)O)c(Nc2ccc(F)cc2)c1", "note": "(single isomer, unassigned) [Example 784]", "values": [{"measurement": "IC50", "result": "> 50", "unit": "nM"}]}, {"smiles": "COCC(CC(=O)O)c1ccc(N(CC(C)C)C2CCCCC2)c(NC(=O)Nc2ccc(Cl)cc2F)c1", "note": "(single isomer, unassigned) [985-1]", "values": [{"measurement": "IC50", "result": "< 5", "unit": "nM"}]}, {"smiles": "CC[C@H](CC(=O)O)c1ccc(N(CC)C2CCOCC2)c(NC(=O)Nc2ccc(Cl)cc2F)c1", "note": "(single isomer, unassigned) [Example 526]", "values": [{"measurement": "IC50", "result": "< 5", "unit": "nM"}]}, {"smiles": "COCC(CC(=O)O)c1ccc(N(CC(C)C)C2CCOCC2)c(NC(=O)Nc2ccc(OC)cc2F)c1", "note": "(single isomer, unassigned) [Example 1221, 3-(3-(3-(2-Fluoro-4-methoxyphenyl)ureido)-4-(isobutyl(tetrahydro-2H-pyran-4-yl)amino)phenyl)-4-methoxybutanoic]", "values": [{"measurement": "IC50", "result": "< 50", "unit": "nM"}]}, {"smiles": "CC[C@H](CC(=O)O)c1ccc(N(CC)C2CCCCC2)c(Nc2ccc(C#N)cc2)c1", "note": "(single isomer, unassigned) [Example 289]", "values": [{"measurement": "IC50", "result": "< 5", "unit": "nM"}]}, {"smiles": "CCC(CC(=O)O)c1cc(F)c(N(CC(C)C)CC(C)C)c(NC(=O)Nc2cc(C(C)(C)C)on2)c1", "note": "(racemic) [Example 971, (+/−)-3-(3-(3-(5-(tert-Butyl)isoxazol-3-yl)ureido)-4-(diisobutylamino)-5-fluorophenyl)pentanoic acid, TFA]", "values": [{"measurement": "IC50", "result": "> 50", "unit": "nM"}]}, {"smiles": "CCC(CC(=O)O)c1ccc(N(CC2CC2)C2CCOCC2)c(Nc2ccc(C#N)cc2)c1", "note": "(single isomer, unassigned) [Example 706, 3-(3-((4-cyanophenyl)amino)-4-((cyclopropylmethyl) (tetrahydro-2H-pyran-4-yl)amino)phenyl)pentanoic acid]", "values": [{"measurement": "IC50", "result": "< 5", "unit": "nM"}]}, {"smiles": "CCC(CC(=O)O)c1cc(NC(=O)Nc2ccc3c(c2)OCO3)c(N(CC(C)C)CC(C)C)cc1F", "note": "(single isomer, unassigned) [Example 1135, 3-(5-(3-(Benzo[d][1,3]dioxol-5-yl)ureido)-4-(diisobutylamino)-2-fluorophenyl)pentanoic acid]", "values": [{"measurement": "IC50", "result": "< 5", "unit": "nM"}]}, {"smiles": "COCC(CC(=O)O)c1cc(F)c(N(CC(C)C)CC(C)C)c(NC(=O)Nc2ccc(C)cc2)c1", "note": "(single isomer, unassigned) [Example 1186, 3-(4-(Diisobutylamino)-3-fluoro-5-(3-(p-tolyl)ureido)phenyl)-4-methoxybutanoic acid]", "values": [{"measurement": "IC50", "result": "< 5", "unit": "nM"}]}, {"smiles": "COCCC(CC(=O)O)c1ccc(N(CC(C)C)C2CCCCC2)c(NC(=O)Nc2ccc(C)cc2)c1", "note": "(racemic) [Example 1003, (+/−)-3-(4-(Cyclohexyl(isobutyl)amino)-3-(3-(p-tolyl)ureido)phenyl)-5-methoxypentanoic acid]", "values": [{"measurement": "IC50", "result": "< 5", "unit": "nM"}]}, {"smiles": "COCC(CC(=O)O)c1ccc(N(CC(C)C)C2CCCCC2)c(NC(=O)Nc2cncnc2)c1", "note": "(single isomer, unassigned) [991-2]", "values": [{"measurement": "IC50", "result": "< 5", "unit": "nM"}]}, {"smiles": "CCOc1ccc(Nc2cc(C(C)CC(=O)O)ccc2N(CC(C)(C)O)C2CCCCC2)c(F)c1", "note": "(single isomer, unassigned) [Example 52, 3-(4-(cyclohexyl(2-hydroxy-2-methylpropyl)amino)-3-((4-ethoxy-2-fluorophenyl)amino)phenyl)butanoic acid]", "values": [{"measurement": "IC50", "result": "> 50", "unit": "nM"}]}, {"smiles": "CCC(CC(=O)O)c1ccc(N(CC2CC2)C2CCOCC2)c(NC(=O)Nc2ccc(C)cc2)c1", "note": "(single isomer, unassigned) [Example 695, 3-(4-((Cyclopropylmethyl)(tetrahydro-2H-pyran-4-yl)amino)-3-(3-(p-tolyl)ureido)phenyl)pentanoic acid]", "values": [{"measurement": "IC50", "result": "< 50", "unit": "nM"}]}, {"smiles": "CCC(CC(=O)O)c1ccc(N2CCC[C@@H]2COC)c(NC(=O)Cc2ccc(C)cc2)c1", "note": "(single isomer, unassigned) [Example 1144]", "values": [{"measurement": "IC50", "result": "> 50", "unit": "nM"}]}, {"smiles": "CC[C@@H](CC(=O)O)c1ccc(N2CCOC[C@@H]2C(C)C)c(NC(=O)Nc2ccc(C)cc2)c1", "note": "(single isomer, unassigned) [Example 74]", "values": [{"measurement": "IC50", "result": "> 50", "unit": "nM"}]}, {"smiles": "CC[C@H](CC(=O)O)c1ccc(N2CCOC[C@@H]2C(C)C)c(NC(=O)Nc2ccc(Cl)cc2F)c1", "note": "(single isomer, unassigned) [Example 86]", "values": [{"measurement": "IC50", "result": "< 50", "unit": "nM"}]}, {"smiles": "CCC(CC(=O)O)c1ccc(N2CCOC[C@H]2C(C)C)c(Nc2ccc(F)cc2)c1", "note": "(single isomer, unassigned) [Example 901]", "values": [{"measurement": "IC50", "result": "< 5", "unit": "nM"}]}, {"smiles": "CC(CC(=O)O)c1ccc(N(CC(C)(C)O)C2CCCCC2)c(Nc2ccc3c(c2)OC(F)(F)O3)c1", "note": "(single isomer, unassigned) [Example 53, 3-(4-(cyclohexyl(2-hydroxy-2-methylpropyl)amino)-3-((2,2-difluorobenzo[d][1,3]dioxol-5-yl)amino)phenyl)butanoic acid]", "values": [{"measurement": "IC50", "result": "< 5", "unit": "nM"}]}, {"smiles": "CCN(c1ccc([C@H](COC)CC(=O)O)cc1NC(=O)Nc1ccc(Cl)cc1F)C1CCOCC1", "note": "(single isomer, unassigned) [Example 434]", "values": [{"measurement": "IC50", "result": "< 50", "unit": "nM"}]}, {"smiles": "COCC(CC(=O)O)c1ccc(N(CC2CC2)C2CCOCC2)c(NC(=O)Nc2ccc(C)cc2)c1", "note": "(single isomer, unassigned) [Example 676, 3-(4-((Cyclopropylmethyl)(tetrahydro-2H-pyran-4-yl)amino)-3-(3-(p-tolyl)ureido)phenyl)-4-methoxybutanoic acid]", "values": [{"measurement": "IC50", "result": "> 50", "unit": "nM"}]}, {"smiles": "CCc1cnc(Nc2cc([C@@H](CC)CC(=O)O)ccc2N(CC)C2CCOCC2)nc1", "note": "(single isomer, unassigned) [Example 457]", "values": [{"measurement": "IC50", "result": "< 50", "unit": "nM"}]}, {"smiles": "CC[C@H](CC(=O)O)c1ccc(N(CC(C)C)C2CCS(=O)(=O)CC2)c(NC(=O)Nc2ccc(OC)cc2F)c1", "note": "(single isomer, unassigned) [Example 211]", "values": [{"measurement": "IC50", "result": "> 50", "unit": "nM"}]}, {"smiles": "CC[C@@H](CC(=O)O)c1ccc(N2CCC[C@H]2C(C)(C)F)c(Nc2ccc(Cl)cc2)c1", "note": "(single isomer, unassigned) [Example 788]", "values": [{"measurement": "IC50", "result": "< 5", "unit": "nM"}]}, {"smiles": "CC[C@H](CC(=O)O)c1ccc(N(CC2CC2)CC(C)(C)O)c(Nc2ccc(C#N)cc2)c1", "note": "(single isomer, unassigned) [Example 272]", "values": [{"measurement": "IC50", "result": "< 5", "unit": "nM"}]}, {"smiles": "CC[C@@H](CC(=O)O)c1ccc(N(CC)C2CCOCC2)c(Nc2ccc(OCC(F)(F)F)cc2)c1", "note": "(single isomer, unassigned) [Example 475]", "values": [{"measurement": "IC50", "result": "< 5", "unit": "nM"}]}, {"smiles": "CCC(CC(=O)O)c1ccc(N(CC2CC2)C2CCOCC2)c(Nc2ccc3nc(C)sc3c2)c1", "note": "(single isomer, unassigned) [Example 701, 3-(4-((Cyclopropylmethyl)(tetrahydro-2H-pyran-4-yl)amino)-3-((2-methylbenzo[d]thiazol-6-yl)amino)phenyl)pentanoic acid]", "values": [{"measurement": "IC50", "result": "< 50", "unit": "nM"}]}, {"smiles": "CC[C@@H](CC(=O)O)c1ccc(N(CC(C)C)CC(C)C)c(Nc2ccc3nc(C)sc3c2)c1", "note": "(single isomer, unassigned) [Example 9]", "values": [{"measurement": "IC50", "result": "> 50", "unit": "nM"}]}, {"smiles": "CCOc1ccc(NC(=O)Nc2cc(C(COC)CC(=O)O)ccc2N(CC(C)C)C2CCCCC2)c(F)c1", "note": "(single isomer, unassigned) [Example 1232, 3-(4-(Cyclohexyl(isobutyl)amino)-3-(3-(4-ethoxy-2-fluorophenyl)ureido)phenyl)-4-methoxybutanoic acid]", "values": [{"measurement": "IC50", "result": "< 50", "unit": "nM"}]}, {"smiles": "CCOc1ccc(Nc2cc(C(CC)CC(=O)O)cc(F)c2N(CC(C)C)CC(C)C)cc1", "note": "(single isomer, unassigned) [Example 97, 3-(4-(diisobutylamino)-3-((4-ethoxyphenyl)amino)-5-fluorophenyl)pentanoic acid]", "values": [{"measurement": "IC50", "result": "< 50", "unit": "nM"}]}, {"smiles": "COC(Cc1ccc(N(CC(C)C)C2CCCCC2)c(NC(=O)Nc2ccc(C#N)cc2F)c1)C(=O)O", "note": "(racemic) [Example 1011, 3-(3-(3-(4-Cyano-2-fluorophenyl)ureido)-4-(cyclohexyl(isobutyl)amino)phenyl)-2-methoxypropanoic acid]", "values": [{"measurement": "IC50", "result": "< 50", "unit": "nM"}]}, {"smiles": "CCOc1ccc(NC(=O)Nc2cc(C(COC)CC(=O)O)cc(F)c2N(CC(C)C)CC(C)C)c(F)c1", "note": "(single isomer, unassigned) [Example 1178, 3-(4-(Diisobutylamino)-3-(3-(4-ethoxy-2-fluorophenyl)ureido)-5-fluorophenyl)-4-methoxybutanoic acid]", "values": [{"measurement": "IC50", "result": "< 50", "unit": "nM"}]}, {"smiles": "COCC(CC(=O)O)c1cc(F)c(N(CC(C)C)C2CCCCC2)c(NC(=O)Nc2ccc(C)cc2)c1", "note": "(single isomer, unassigned) [Example 1155, 3-(4-(cyclohexyl(isobutyl)amino)-3-fluoro-5-(3-(p-tolyl)ureido)phenyl)-4-methoxybutanoic acid]", "values": [{"measurement": "IC50", "result": "< 5", "unit": "nM"}]}]}
